Laboratory results: PMC10119423, “From PERK to RIPK1: Design, synthesis and evaluation of novel potent and selective necroptosis inhibitors” (Frontiers in Chemistry, 2023)
Read-outs that look alike come from different tables or passages of the source.

Experiments:
[1] = system: immortalized MEFs; test: RIPK1 kinase-dependent necroptosis (hTNF + zVAD.fmk) in MEFs, Sytox Green; assay type: cell-based, mouse; settings: Mus musculus;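 also: cell death taken as background-corrected Sytox Green fluorescence relative to the maximal signal of cells fully permeabilized with 0.1% Triton X-100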
Experimental: In brief, the cells were seeded in duplicate at 10,000 cells per well in a 96-well adherent plate and incubated overnight at 37°C with 5% CO2. […] All the compound stock solutions were prepared in DMSO at 200 µM concentration. After stimulating the cells with human TNF at 20 ng/mL the plate was transferred to the incubator. […] The cell death was calculated by subtracting the background fluorescence from the induced Sytox Green fluorescence and by dividing the obtained result by the maximal fluorescence (minus the background fluorescence) obtained by permeabilization of the cells by using Triton X-100 at a final concentration of 0.1%. Curves were plotted in GraphPad 9 for the IC50 calculation.
Consequently, the compounds were evaluated for their potential protection of RIPK1-mediated necroptosis following human TNF stimulation.

[2] = system: MEFs; test: RIPK1 kinase-dependent apoptosis (hTNF + TAK1i) in MEFs, Sytox Green; assay type: cell-based; settings: Mus musculus, TAK1i + hTNF (100 pg/mL)
Description: In MEFs, TNF together with the pan caspases inhibitor zVAD.fmk induces RIPK1-dependent necroptosis while TNF together with TAK1 inhibitor induces RIPK1 kinase-dependent apoptosis. We also included the conditions selected for the Western blot experiments, where necroptosis was induced by the combination of hTNF, zVAD.fmk and TAK1 inhibitor.

[3] = system: 300 kinases; set-up: method as in Axten et al., 2013; settings: 10 µM, out of 300 kinases; ref Axten et al., 2013; cited from earlier work
[4] = system: HT-29; test: Necroptosis (hTNF + TAK1i + zVAD.fmk) in HT-29 cells, Sytox Green; settings: Homo sapiens, HT-29, read-out: Necroptosis hTNF + TAK1i + zVAD.fmk HT-29 IC50
Experimental: In brief, the cells were seeded in duplicate at 10,000 cells per well in a 96-well adherent plate and incubated overnight at 37°C with 5% CO2. […] All the compound stock solutions were prepared in DMSO at 200 µM concentration. After stimulating the cells with human TNF at 20 ng/mL the plate was transferred to the incubator. Sytox Green intensity was measured in function of time at 0, 14 and 24 h with an excitation filter of 485 nm, an emission filter of 520 nm. The cell death was calculated by subtracting the background fluorescence from the induced Sytox Green fluorescence and by dividing the obtained result by the maximal fluorescence (minus the background fluorescence) obtained by permeabilization of the cells by using Triton X-100 at a final concentration of 0.1%. Curves were plotted in GraphPad 9 for the IC50 calculation.
To induce necroptosis in human colorectal adenocarcinoma cell line (HT-29) together with hTNF and the pan caspases inhibitor zVAD.fmk, TAK1 inhibitor is also needed.

[5] = molecular target: T1, RIPK1 (Mus musculus, UniProt Q60855); test: RIPK1 autophosphorylation (pS166) by Western blot in MEFs stimulated with hTNF + TAK1i + zVAD.fmk; assay type: cell-based; settings: immortalised MEFs, 30 min pretreatment with zVAD.fmk 50 μM, TAK1i 1 μM and compound, hTNF 20 ng/ml for 2.5 h, read-out: RIPK1 inhibition (IC50 estimated from a Western blot)
T1 construct: endogenous in cells; host or cells: immortalized mouse embryonic fibroblasts (MEFs, C57Bl6/J)
T1 sequence (Q60855 1-656): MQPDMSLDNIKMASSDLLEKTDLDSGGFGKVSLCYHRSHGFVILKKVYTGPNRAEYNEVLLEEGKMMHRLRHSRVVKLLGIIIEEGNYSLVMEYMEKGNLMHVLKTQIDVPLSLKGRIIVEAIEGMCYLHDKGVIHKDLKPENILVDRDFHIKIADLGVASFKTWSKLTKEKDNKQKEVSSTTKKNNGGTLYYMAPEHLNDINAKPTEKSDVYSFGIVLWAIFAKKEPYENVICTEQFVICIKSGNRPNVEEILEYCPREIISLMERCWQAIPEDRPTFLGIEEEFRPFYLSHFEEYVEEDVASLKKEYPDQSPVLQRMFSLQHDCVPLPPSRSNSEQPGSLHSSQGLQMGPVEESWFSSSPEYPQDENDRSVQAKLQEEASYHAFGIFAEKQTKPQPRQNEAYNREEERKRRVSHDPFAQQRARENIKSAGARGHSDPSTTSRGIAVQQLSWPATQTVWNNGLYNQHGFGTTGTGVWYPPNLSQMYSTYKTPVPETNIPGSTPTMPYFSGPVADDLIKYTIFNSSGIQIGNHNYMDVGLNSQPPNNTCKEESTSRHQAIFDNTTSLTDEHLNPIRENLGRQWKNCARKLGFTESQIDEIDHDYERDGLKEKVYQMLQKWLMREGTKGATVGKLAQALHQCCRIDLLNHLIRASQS
Experimental: (§1) MEFs were seeded in 6-well plates at a density of 300.000 cells/well in 2 mL. The next day, the cells were suspended in 1 mL of medium and pre-treated for 30 min with the indicated compounds at 1/5 dilutions series for PERK ranging from 5 to 0.04 µM and 1 μg/mL of Tm followed by 4 h treatment with 20 ng/mL of hTNF. For RIPK1, the cells were pre-treated at 1/10 dilutions series ranging from 10 to 0.01 nM, 50 µM zVAD.fmk and 1 µM TAKi before stimulation with 20 ng/mL of hTNF for 2.5 h. Then, the cells were washed two times with 1 mL of ice-cold PBS before lysis in 0.2 mL of Laemmli buffer 1x (10% (w/v) SDS, 50% glycerol, 0.5% bromophenol blue, 250 mM Tris–HCl pH 6.8) and 250 mM of dithiothreitol (DTT). The cell lysate was then collected and boiled at 95 °C for 10min and stored at −20°C. Proteins expression was later monitored by immunoblotting.
Activation of PERK was induced by stimulation of the cells with Tunicamycin, as previsouly reported ([Bull and Thiede, 2012]). More precisely, the immortalised MEFs were pre-incubated for 30 min with the analogues 18–34 at different concentrations (0.04, 0.2, 1, and 5 µM) prior to 4 h stimulation with Tunicamycin (1 μg/mL). […] Their activities were evaluated by comparing the intensity of the signal to unstimulated MEFs (considered as zero phosphorylation) and Tunicamycin stimulated cells (considered as 100% PERK phosphorylation). The 12 compounds (18–20, 22–29 and 34) that had lost their inhibitory capacity on PERK were then tested for their ability to inhibit RIPK1 as shown in Figures 6A–H. Activation and autophosphorylation of RIPK1 was induced by stimulating the cells with TNF in the presence of TAK1 inhibitor and of the pan-caspases inhibitor zVAD.fmk, a well established necroptotic trigger ([Vanlangenakker et al., 2011]). The MEFs were pre-incubated for 30 min with the different compounds (0.01 nM–1000 nM) and then stimulated with human TNF (20 ng/mL) for 2.5 h. Similar to the PERK assessment, IC50 values for RIPK1 inhibition were estimated as a range of concentrations, and are reported in Table 1. These experiments provide an estimation of the specificity of our analogues against PERK and RIPK1 in comparison to the benchmark GSK’157 already reported as a potent PERK and RIPK1 inhibitor.

[6] = molecular target: T2, PERK (Mus musculus, UniProt Q9Z2B5); test: PERK autophosphorylation by Western blot in tunicamycin-stimulated immortalized MEFs; assay type: cell-based; settings: immortalized MEFs, 30 min pretreatment, tunicamycin 1 μg/ml for 4 h; PERK autophosphorylation; read-out: PERK inhibition (IC50 estimated from a Western blot)
T2 construct: Immortalized MEFs were pretreated for 30 min with increasing concentrations of GSK’157 and the indicated compounds and stimulated with tunicamycin; endogenous in cells; host or cells: immortalized mouse embryonic fibroblasts (MEFs, C57Bl6/J)
T2 sequence (Q9Z2B5 29-1114): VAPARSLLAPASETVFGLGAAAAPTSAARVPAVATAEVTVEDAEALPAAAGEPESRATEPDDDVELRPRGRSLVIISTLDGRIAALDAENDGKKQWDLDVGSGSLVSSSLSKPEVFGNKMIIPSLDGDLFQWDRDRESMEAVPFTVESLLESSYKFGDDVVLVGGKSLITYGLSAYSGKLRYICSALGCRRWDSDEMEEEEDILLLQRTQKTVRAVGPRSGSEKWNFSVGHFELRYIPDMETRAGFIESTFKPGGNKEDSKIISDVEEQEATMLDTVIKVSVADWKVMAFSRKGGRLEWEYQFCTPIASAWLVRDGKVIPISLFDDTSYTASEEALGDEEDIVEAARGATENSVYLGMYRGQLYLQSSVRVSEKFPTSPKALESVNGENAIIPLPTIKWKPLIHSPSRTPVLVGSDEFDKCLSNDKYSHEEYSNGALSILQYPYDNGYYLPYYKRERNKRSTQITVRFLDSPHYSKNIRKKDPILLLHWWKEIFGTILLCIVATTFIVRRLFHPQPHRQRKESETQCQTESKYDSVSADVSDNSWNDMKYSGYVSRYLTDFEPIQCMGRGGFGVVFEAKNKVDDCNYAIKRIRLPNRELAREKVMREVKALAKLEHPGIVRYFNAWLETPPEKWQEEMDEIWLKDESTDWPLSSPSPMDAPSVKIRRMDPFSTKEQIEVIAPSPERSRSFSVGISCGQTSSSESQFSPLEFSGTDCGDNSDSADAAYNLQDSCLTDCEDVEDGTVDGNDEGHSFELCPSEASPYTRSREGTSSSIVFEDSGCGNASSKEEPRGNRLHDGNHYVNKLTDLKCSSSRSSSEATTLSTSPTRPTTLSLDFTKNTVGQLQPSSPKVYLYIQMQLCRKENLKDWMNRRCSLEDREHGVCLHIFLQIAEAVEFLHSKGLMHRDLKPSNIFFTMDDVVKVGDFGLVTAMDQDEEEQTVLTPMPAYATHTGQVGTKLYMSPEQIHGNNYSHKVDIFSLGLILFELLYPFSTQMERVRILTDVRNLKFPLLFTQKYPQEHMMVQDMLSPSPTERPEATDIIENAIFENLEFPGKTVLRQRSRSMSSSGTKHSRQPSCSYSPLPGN
Experimental: as §1
Their activities were evaluated by comparing the intensity of the signal to unstimulated MEFs (considered as zero phosphorylation) and Tunicamycin stimulated cells (considered as 100% PERK phosphorylation). […] The MEFs were pre-incubated for 30 min with the different compounds (0.01 nM–1000 nM) and then stimulated with human TNF (20 ng/mL) for 2.5 h. Similar to the PERK assessment, IC50 values for RIPK1 inhibition were estimated as a range of concentrations, and are reported in Table 1.

[7] = 24 h, immortalized MEFs, zVAD-fmk 50 μM + hTNF 20 ng/ml, Sytox Green at 24 h, Table 1 series, read-out: IC50 necroptosis

Structure (SMILES)	IC50 ([1]; 24 h, read-out: IC50 necroptosis)	IC50 ([1]; 24 h, MEFs, hTNF + zVAD.fmk (20 ng/mL), Table 2, read-out: Necroptosis hTNF + zVAD.fmk MEFs IC50)	IC50 [2]	number of kinases inhibited with more than 80% [3]	IC50 [4]	IC50 [5]	IC50 [1, 7]	IC50 [6]	IC50 ([1]; MEFs, hTNF + zVAD.fmk, read-out: IC50 necroptosis inhibition)
Cc1cccc(CC(=O)N2CCc3c2ccc(-c2cn(C)c4ncnc(N)c24)c3F)n1 [Compound 10, reference compound]	0.42 nM	0.7 nM	3.7 nM	17	3.1 nM	0.1 to 1 nM			
Cn1cc(-c2ccc3c(c2F)CCN3C(=O)Cc2ccc(F)cn2)c2c(N)ncnc21 [Compound 18]						≥ 10 nM	13.5 nM	> 5000 nM	
Cn1cc(-c2ccc3c(c2F)CCN3C(=O)Cc2ccc(Cl)cn2)c2c(N)ncnc21 [Compound 19]						1 to 10 nM	2.5 nM	> 5000 nM	
Cn1cc(-c2ccc3c(c2F)CCN3C(=O)Cc2ccc(Br)cn2)c2c(N)ncnc21 [Compound 20]						1 to 10 nM	3.2 nM	> 5000 nM	
Cc1ccc(CC(=O)N2CCc3c2ccc(-c2cn(C)c4ncnc(N)c24)c3F)nc1 [Compound 21]						≥ 10 nM	37 nM	1000 to 5000 nM	
COc1ccc(CC(=O)N2CCc3c2ccc(-c2cn(C)c4ncnc(N)c24)c3F)nc1 [Compound 23]						≥ 10 nM	39 nM	≥ 5000 nM	
Cn1cc(-c2ccc3c(c2F)CCN3C(=O)Cc2ccc(C3CC3)cn2)c2c(N)ncnc21 [Compound 24]						≥ 10 nM	33.5 nM	> 5000 nM	
Cn1cc(-c2ccc3c(c2F)CCN3C(=O)Cc2ccc(C(C)(C)C)cn2)c2c(N)ncnc21 [Compound 25]						≥ 10 nM	40 nM	> 5000 nM	
Cn1cc(-c2ccc3c(c2F)CCN3C(=O)Cc2ccc(O)cn2)c2c(N)ncnc21 [Compound 26]						≥ 10 nM	2530 nM	≥ 5000 nM	> 2000 nM
